From paper PMC10060162, “Structural basis of mitochondrial membrane bending by the I–II–III2–IV2 supercomplex” (Nature, 2023)

What was measured:
[1] = molecular target: T1, NDUTT3 (Tetrahymena thermophila, UniProt I7LUQ4); assay: cryo-EM structure; assay type: binding; details: co-purified native ligand
T1 construct: gene TTHERM_00268000; native matrix-arm subunit of complex I within supercomplex, digitonin
T1 sequence (I7LUQ4 1-311): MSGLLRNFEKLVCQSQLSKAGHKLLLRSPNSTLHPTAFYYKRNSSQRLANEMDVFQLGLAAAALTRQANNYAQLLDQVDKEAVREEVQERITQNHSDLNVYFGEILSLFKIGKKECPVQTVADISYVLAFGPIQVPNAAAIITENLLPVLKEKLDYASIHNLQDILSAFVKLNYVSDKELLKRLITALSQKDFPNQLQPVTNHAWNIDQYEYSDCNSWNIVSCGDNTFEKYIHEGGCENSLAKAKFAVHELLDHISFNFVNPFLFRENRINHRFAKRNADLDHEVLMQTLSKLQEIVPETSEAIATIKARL

[2] = molecular target: T2, NDUFA9 (Tetrahymena thermophila, UniProt I7MLH2); assay: cryo-EM structure; assay type: binding; details: co-purified; close to the CI Q-tunnel
T2 construct: gene TTHERM_00557760; native subunit of complex I within supercomplex, digitonin
T2 sequence (I7MLH2 27-362): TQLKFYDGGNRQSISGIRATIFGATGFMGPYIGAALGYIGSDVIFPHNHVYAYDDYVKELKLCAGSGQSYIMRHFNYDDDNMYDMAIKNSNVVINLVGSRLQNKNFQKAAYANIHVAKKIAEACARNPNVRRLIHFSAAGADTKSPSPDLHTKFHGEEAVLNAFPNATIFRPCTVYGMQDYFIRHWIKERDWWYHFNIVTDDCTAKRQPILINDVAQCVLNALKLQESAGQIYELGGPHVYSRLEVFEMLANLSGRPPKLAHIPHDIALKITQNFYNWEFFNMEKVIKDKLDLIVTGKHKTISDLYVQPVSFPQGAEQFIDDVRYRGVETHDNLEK

[3] = molecular target: T3, COB (CIII2) (Tetrahymena thermophila, UniProt Q950Z1); assay: cryo-EM structure; assay type: binding; details: co-purified; Qi site near haem bH (or semiquinone); second site between the two haem bL
T3 construct: native; mitochondria-encoded subunit in complex III dimer within supercomplex, digitonin
T3 sequence (Q950Z1 1-426): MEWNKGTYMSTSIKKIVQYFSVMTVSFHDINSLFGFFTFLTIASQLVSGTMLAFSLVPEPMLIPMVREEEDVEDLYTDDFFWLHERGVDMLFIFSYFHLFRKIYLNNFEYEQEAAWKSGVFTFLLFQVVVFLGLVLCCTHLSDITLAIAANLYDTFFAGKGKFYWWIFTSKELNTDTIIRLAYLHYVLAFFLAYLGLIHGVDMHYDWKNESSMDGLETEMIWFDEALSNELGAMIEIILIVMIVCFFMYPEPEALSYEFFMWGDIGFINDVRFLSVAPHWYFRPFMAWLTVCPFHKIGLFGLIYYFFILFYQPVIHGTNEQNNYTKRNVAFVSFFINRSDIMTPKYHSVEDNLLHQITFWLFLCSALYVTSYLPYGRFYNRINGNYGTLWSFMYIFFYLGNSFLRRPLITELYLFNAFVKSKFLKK

[4] = molecular target: T4, SDHA (CII) (Tetrahymena thermophila, UniProt Q23DI3); assay: cryo-EM structure; assay type: binding; details: covalent
T4 construct: gene TTHERM_00047080; native complex II in I-II-III2-IV2 supercomplex from mitochondria, digitonin; with Succinate dehydrogenase [ubiquinone] iron-sulfur subunit, mitochondrial; Succinate dehydrogenase membrane anchor subunit SDHC; Succinate dehydrogenase membrane anchor subunit SDHD (mitochondria-encoded)
T4 sequence (Q23DI3 1-636): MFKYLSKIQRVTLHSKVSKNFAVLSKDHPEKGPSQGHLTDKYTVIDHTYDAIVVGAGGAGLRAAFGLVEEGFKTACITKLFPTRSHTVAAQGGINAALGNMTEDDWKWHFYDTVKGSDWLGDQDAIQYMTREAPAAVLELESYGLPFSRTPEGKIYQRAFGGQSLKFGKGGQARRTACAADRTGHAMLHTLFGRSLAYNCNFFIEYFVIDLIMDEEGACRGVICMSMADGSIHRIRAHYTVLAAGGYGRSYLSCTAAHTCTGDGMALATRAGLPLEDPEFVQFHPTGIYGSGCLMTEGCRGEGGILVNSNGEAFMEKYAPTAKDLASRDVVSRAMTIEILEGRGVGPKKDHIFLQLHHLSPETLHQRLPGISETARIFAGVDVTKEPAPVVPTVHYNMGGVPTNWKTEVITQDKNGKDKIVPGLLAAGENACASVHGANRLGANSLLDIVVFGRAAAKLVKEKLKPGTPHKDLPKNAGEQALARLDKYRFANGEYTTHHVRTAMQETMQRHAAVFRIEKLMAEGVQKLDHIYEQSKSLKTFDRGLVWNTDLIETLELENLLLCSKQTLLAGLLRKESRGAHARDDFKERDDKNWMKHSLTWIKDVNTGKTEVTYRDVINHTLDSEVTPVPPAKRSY

[5] = molecular target: complex III monomer (cytochrome bc1) of Tetrahymena thermophila (Tetrahymena thermophila); assay: cryo-EM structure; single-particle cryo-EM of the native supercomplex co-purified from T. thermophila mitochondria; buffer D (25 mM HEPES-KOH pH 7.5, 25 mM KCl, 5 mM MgCl2, 0.1% w/v digitonin); 2.9 Å overall, masked refinements 2.6-3.0 Å
[6] = molecular target: complex IV monomer (cytochrome c oxidase) of Tetrahymena thermophila (Tetrahymena thermophila) (UniProt Q950Y7); assay: as above

For Nc1ncnc2c1ncn2[C@@H]1O[C@H](COP(=O)(O)OP(=O)(O)O)[C@@H](O)[C@H]1O [ADP], the cryo-EM structure [1] was “subunits NDUTT1 with UDP and NDUTT3 with ADP”.

In the case of NC(=O)C1=CN([C@@H]2O[C@H](COP(=O)(O)OP(=O)(O)OC[C@H]3O[C@@H](n4cnc5c(N)ncnc54)[C@H](OP(=O)(O)O)[C@@H]3O)[C@@H](O)[C@H]2O)C=CC1 [NADPH], the cryo-EM structure [2] is reported as “NDUFA9 contains a bound NADPH molecule close to the CI Q-tunnel”.

With COC1=C(OC)C(=O)C(C/C=C(\C)CC/C=C(\C)CC/C=C(\C)CC/C=C(\C)CC/C=C(\C)CC/C=C(\C)CC/C=C(\C)CCC=C(C)C)=C(C)C1=O [UQ, ubiquinone] the cryo-EM structure [3] was “density for a bound (semi)-UQ was observed in the Qi site”.

In the case of Cc1cc2nc3c(=O)[nH]c(=O)nc-3n(C[C@H](O)[C@H](O)[C@H](O)COP(=O)(O)OP(=O)(O)OC[C@H]3O[C@@H](n4cnc5c(N)ncnc54)[C@H](O)[C@@H]3O)c2cc1C [flavin adenine dinucleotide], the cryo-EM structure [4] is reported as “SDHA and SDHB forms a conserved head region, containing both the covalently bound FAD”.

Molecule “complex III monomer (cytochrome bc1) of Tetrahymena thermophila” has a stoichiometry N [5] of 2.

“complex IV monomer (cytochrome c oxidase) of Tetrahymena thermophila (from UniProt Q950Y7 1-453; Q950Y6 1-594)” gave a stoichiometry N [6] of 2.
